SMILES strings stand for the structures. Bounds are passed on as bounds.

The first assay has as its system ATF4. Kind of assay: ATF4 expression inhibition assay (ATF4 5'UTR luciferase reporter, thapsigargin-stressed). The settings on record: Homo sapiens, HEK-293T, 3 h, read-out: ATF4 inhibition. The class given is cell-based. The method, then: The ATF4 reporter was prepared by fusing the human full length 5′UTR of ATF4 (NCBI Accession No. BC022088.2) upstream of the firefly luciferase coding sequence lacking the initiator methionine. The fused sequence was cloned into pLenti-EF1a-C-Myc-DDK-IRES-Puro cloning vector (Origen #PS100085) using standard methods.
HEK293T cells carrying the ATF4 luciferase reporter were plated on 96-well plates (Nunc) at 10,000 cells per well. Cells were treated two days after seeding with 100 nM thapsigargin (Tg) (Sigma-Aldrich #T9033) in the presence of different concentrations of selected compounds ranging from 0.1 nM to 10 μM. Cells without treatment or cells treated with Tg alone were used as controls. Assay plates containing cells were incubated for 3 hours at 37° C.
Luciferase reactions were performed using Luciferase Assay System (Promega #E1501) as specified by the manufacturer. Luminescence was read with an integration time of 1 s and a gain of 110 using a Cytation-5 multi-mode microplate reader (BioTek).
On the technique in general: Reporter assays use an easily measured gene product as a stand-in for the process of interest.
Regarding `O=C(Nc1ccc2cc(Cl)ccc2n1)[C@H]1CC[C@H](c2nc(-c3ccc(Cl)cc3)co2)CC1` [Compound 32, trans-4-(4-(4-chlorophenyl)oxazol-2-yl)-N-(6-chloroquinolin-2-yl)cyclohexanecarboxamide], the IC50 was more than 1000 nM.

Take `O=C(Nc1nc2cc(Cl)ccc2o1)[C@H]1CC[C@H](c2nnc(CO[C@H]3C[C@@H](OC(F)(F)F)C3)o2)CC1` [Compound 41, trans-N-(5-chlorobenzo[d]oxazol-2-yl)-4-(5-((cis-3-(trifluoromethoxy)cyclobutoxy)methyl)-1,3,4-oxadiazol-2-yl)cyclohexanecarboxamide]: the IC50 lay in the range of 100 to 1000 nM.

The same assay, now with this note: Homo sapiens, HEK-293T; HEK293T cells carrying ATF4 luciferase reporter, 100 nM thapsigargin, 3 hours; read-out: ATF4 inhibition.
For `O=C(COc1ccc(Cl)c(F)c1)N[C@H]1CC[C@H](c2nnc(C3CNc4cc(Cl)ccc4O3)o2)CC1` (stereo partly drawn) [Compound 18, trans-N-(4-(5-(6-chloro-3,4-dihydro-2H-benzo[b][1,4]oxazin-2-yl)-1,3,4-oxadiazol-2-yl)cyclohexyl)-2-(4-chloro-3-fluorophenoxy)acetamide], the IC50 was less than 10 nM.

For the molecule `O=C(N[C@H]1CC[C@H](c2nnc(Cc3ccc(Cl)cc3)o2)CC1)c1cc2cc(Cl)ccc2o1` [Compound 247, trans-5-chloro-N-(4-(5-(4-chlorobenzyl)-1,3,4-oxadiazol-2-yl)cyclohexyl)benzofuran-2-carboxamide], the IC50 is less than 10 nM.

Turning to `O=C(COc1ccc(Cl)c(F)c1)N[C@H]1CC[C@H](c2nnc(-c3ccc(Cl)cc3)o2)CC1` [Compound 7, trans-2-(4-chloro-3-fluorophenoxy)-N-(4-(5-(4-chlorophenyl)-1,3,4-oxadiazol-2-yl)cyclohexyl)acetamide], the IC50 was less than 10 nM.

As for `O=C(Nc1ccc2cc(Cl)ccc2n1)[C@H]1CC[C@H](c2nnc([C@H]3C[C@@H](C(F)(F)F)C3)o2)CC1` [Compound 248, trans-N-(6-chloroquinolin-2-yl)-4-(5-(cis-3-(trifluoromethyl)cyclobutyl)-1,3,4-oxadiazol-2-yl)cyclohexanecarboxamide], the IC50 lay in the range of 100 to 1000 nM.

In the case of `O=C(N[C@H]1CC[C@H](c2nnc(Cc3ccc(Cl)cc3)o2)CC1)c1ccc2cc(Cl)ccc2n1` [Compound 239, 6-chloro-N-(trans-4-(5-(4-chlorobenzyl)-1,3,4-oxadiazol-2-yl)cyclohexyl)quinoline-2-carboxamide], the IC50 is less than 10 nM.

In the case of `O=C(Nc1ccc2cc(Cl)ccc2n1)[C@H]1CC[C@H](c2nnc(COc3ccc(Cl)cc3)o2)CC1` [Compound 40, trans-4-(5-((4-chlorophenoxy)methyl)-1,3,4-oxadiazol-2-yl)-N-(6-chloroquinolin-2-yl)cyclohexanecarboxamide], the IC50 lay within 10 to 100 nM.

Consider `O=C(NC[C@H]1CC[C@H](c2nnc(-c3ccc(Cl)cc3)o2)CC1)[C@H]1C[C@@H](O)c2cc(Cl)ccc2O1` [Compound 253, (2R,4R)-6-chloro-N-((trans-4-(5-(4-chlorophenyl)-1,3,4-oxadiazol-2-yl)cyclohexyl)methyl)-4-hydroxychroman-2-carboxamide], for which the IC50 fell in the range of 100 to 1000 nM.

Consider `O=C(Nc1ccc2cc(Cl)ccc2n1)C1CCN(c2nnc(-c3ccc(Cl)cc3)o2)CC1` [Compound 49, 1-(5-(4-chlorophenyl)-1,3,4-oxadiazol-2-yl)-N-(6-chloroquinolin-2-yl)piperidine-4-carboxamide], for which the IC50 is 100 to 1000 nM.

For the molecule `O=C(NCc1cc2cc(Cl)ccc2o1)[C@H]1CC[C@H](c2nnc(-c3cc4cc(Cl)ccc4o3)o2)CC1` [Compound 54, trans-4-(5-(5-chlorobenzofuran-2-yl)-1,3,4-oxadiazol-2-yl)-N-((5-chlorobenzofuran-2-yl)methyl)cyclohexanecarboxamide], the IC50 was in the range of 100 to 1000 nM.

Turning to `O=C(Nc1nc2cc(Cl)ccc2s1)[C@H]1CC[C@H](c2nnc(CO[C@H]3C[C@@H](OC(F)(F)F)C3)o2)CC1` [Compound 39, trans-N-(5-chlorobenzo[d]thiazol-2-yl)-4-(5-((cis-3-(trifluoromethoxy)cyclobutoxy)methyl)-1,3,4-oxadiazol-2-yl)cyclohexanecarboxamide], the IC50 was more than 1000 nM.

Take `O=C(Nc1ccc2cc(Cl)ccc2n1)C1CCN(c2nnc([C@H]3C[C@@H](OC(F)(F)F)C3)o2)CC1` [Compound 50, N-(6-chloroquinolin-2-yl)-1-(5-(cis-3-(trifluoromethoxy)cyclobutyl)-1,3,4-oxadiazol-2-yl)piperidine-4-carboxamide]: the IC50 lay in the range of 100 to 1000 nM.

Consider `O=C(NN1CCC(c2nnc([C@H]3C[C@@H](OC(F)(F)F)C3)o2)CC1)c1cc2cc(Cl)ccc2o1` [Compound 251, 5-chloro-N-(4-(5-(cis-3-(trifluoromethoxy)cyclobutyl)-1,3,4-oxadiazol-2-yl)piperidin-1-yl)benzofuran-2-carboxamide], for which the IC50 is less than 10 nM.

As to `O=C(Nc1ccc2cc(Cl)ccc2n1)[C@H]1CC[C@H](c2nnc(CO[C@H]3C[C@@H](OC(F)(F)F)C3)o2)CC1` [Compound 38, trans-N-(6-chloroquinolin-2-yl)-4-(5-((cis-3-(trifluoromethoxy)cyclobutoxy)methyl)-1,3,4-oxadiazol-2-yl)cyclohexanecarboxamide], the IC50 fell in the range of 100 to 1000 nM.

As to `O=C(Nc1nc2cc(Cl)ccc2o1)[C@H]1CC[C@H](c2nnc([C@H]3C[C@@H](OC(F)(F)F)C3)o2)CC1` [Compound 241, trans-N-(5-chlorobenzo[d]oxazol-2-yl)-4-(5-(3-(cis-trifluoromethoxy)cyclobutyl)-1,3,4-oxadiazol-2-yl)cyclohexanecarboxamide], the IC50 lay in the range of 100 to 1000 nM.

As to `O=C(Nc1ccc2cc(Cl)ccc2n1)[C@H]1CC[C@H](c2nnc([C@H]3CNc4cc(Cl)ccc4O3)o2)CC1` (single isomer, unassigned) [Compound 246], the IC50 lay in the range of 100 to 1000 nM.

For the molecule `O=C(NC[C@H]1CC[C@H](c2nnc(-c3ccc(Cl)cc3)o2)CC1)c1ccc(C(F)(F)F)cn1` [Compound 20, trans-N-((4-(5-(4-chlorophenyl)-1,3,4-oxadiazol-2-yl)cyclohexyl)methyl)-5-(trifluoromethyl)picolinamide], the IC50 lay within 100 to 1000 nM.

In the case of `O=C(Nc1ccc2cc(Cl)ccc2n1)[C@H]1CC[C@H](c2nnc([C@@H]3CNc4cc(Cl)ccc4O3)o2)CC1` (single isomer, unassigned) [Compound 245], the IC50 was in the range of 100 to 1000 nM.

Consider `O=C(Nc1nc2cc(Cl)ccc2s1)[C@H]1CC[C@H](c2nnc([C@H]3C[C@@H](OC(F)(F)F)C3)o2)CC1` [Compound 52, trans-N-(5-chlorobenzo[d]thiazol-2-yl)-4-(5-(cis-3-(trifluoromethoxy)cyclobutyl)-1,3,4-oxadiazol-2-yl)cyclohexanecarboxamide], for which the IC50 was 10 to 100 nM.

Consider `O=C(Nc1ccc2cc(Cl)ccc2n1)[C@H]1CC[C@@H](c2cnn(-c3ccc(Cl)cc3)c2)CC1` [Compound 249, cis-4-(1-(4-chlorophenyl)-1H-pyrazol-4-yl)-N-(6-chloroquinolin-2-yl)cyclohexanecarboxamide], for which the IC50 fell in the range of 100 to 1000 nM.

As to `O=C(NCc1cc2cc(Cl)ccc2o1)[C@H]1CC[C@H](c2nnc(COc3ccc(Cl)cc3)o2)CC1` [Compound 53, trans-N-((5-chlorobenzofuran-2-yl)methyl)-4-(5-((4-chlorophenoxy)methyl)-1,3,4-oxadiazol-2-yl)cyclohexanecarboxamide], the IC50 lay within 100 to 1000 nM.

`O=C(NC[C@H]1CC[C@H](c2nnc(-c3ccc(Cl)cc3)o2)CC1)c1ccc(C(F)(F)F)nc1` [Compound 21, trans-N-((4-(5-(4-chlorophenyl)-1,3,4-oxadiazol-2-yl)cyclohexyl)methyl)-6-(trifluoromethyl)nicotinamide]: the IC50 was 100 to 1000 nM.

Turning to `O=C(NCc1cc2cc(Cl)ccc2o1)[C@H]1CC[C@H](c2nnc(-c3ccc(Cl)cc3)o2)CC1` [Compound 51, trans-N-((5-chlorobenzofuran-2-yl)methyl)-4-(5-(4-chlorophenyl)-1,3,4-oxadiazol-2-yl)cyclohexanecarboxamide], the IC50 was 100 to 1000 nM.

Turning to `O=C(NN1CCC(c2nnc([C@H]3C[C@@H](OC(F)(F)F)C3)o2)CC1)C1CNc2cc(Cl)ccc2O1` (stereo partly drawn) [Compound 252, 6-chloro-N-(4-(5-((1s,3s)-3-(trifluoromethoxy)cyclobutyl)-1,3,4-oxadiazol-2-yl)piperidin-1-yl)-3,4-dihydro-2H-benzo[b][1,4]oxazine-2-carboxamide], the IC50 was less than 10 nM.

The next assay relates to Chinese hamster ovary (CHO) cells. Kind of assay: Protein synthesis assay (puromycin incorporation, Western blot). The class given is cell-based. As to conditions: Cricetulus griseus, CHO, 2 h, read-out: % Protein synthesis relative to untreated (1 μM test compound). The method, then:
Chinese hamster ovary (CHO) cells were maintained at 37° C. and 5% CO2 in Dulbecco's Modified Eagle's Media (DMEM) supplemented with 10% fetal bovine serum, 2 mM L-glutamine, 100 U/ml penicillin, and 100 μg/ml streptomycin. After reaching 80% of confluence, cells were detached and seeded on 6 well plates in complete media, allowed to recover overnight and treated for 2 hours with 1 μM of the test compound (to assess protein synthesis levels in unstressed condition), or for 2 hours with 300 nM Tg in the presence of 1 μM of the test compound (to assess the recovery of protein synthesis in a stressed condition). Cells with Tg alone were used as controls.
After the 2 hours treatments, media were replaced by adding 10 μg/ml puromycin (Sigma Aldrich #P8833) in complete media for 30 min. Media were removed and cells were lysed with SDS-PAGE lysis buffer. Lysates were transferred to 1.5 ml tubes and sonicated for 3 min and total protein amount were quantified using BCA Protein Assay Kit (Pierce). Equal amount of protein (30 μg) was loaded on SDS-PAGE gels.
A HRP-conjugated secondary antibody (Rockland) was employed to detect immune-reactive bands using enhanced chemiluminescence (ECL Western Blotting Substrate, Pierce). Quantification of protein bands was done by densitometry using ImageJ software.
The percentage levels were normalized to the media alone condition, which correspond to 100% protein synthesis. […]
On the technique in general: A western blot detects proteins with antibodies after separation by electrophoresis.
As for `O=C(Nc1ccc2cc(Cl)ccc2n1)[C@H]1CC[C@H](c2nc(-c3ccc(Cl)cc3)co2)CC1` [Compound 32, trans-4-(4-(4-chlorophenyl)oxazol-2-yl)-N-(6-chloroquinolin-2-yl)cyclohexanecarboxamide], the activity at 1 µM came out at 136%.

The assay is the same for the next values; noted with them: Cricetulus griseus; unstressed CHO cells (without Tg), 1 μM test compound, 2 hours; media alone = 100%; read-out: % Protein synthesis relative to untreated (1 μM test compound).
In the case of `O=C(COc1ccc(Cl)c(F)c1)N[C@H]1CC[C@H](c2nnc(C3CNc4cc(Cl)ccc4O3)o2)CC1` (stereo partly drawn) [Compound 18, trans-N-(4-(5-(6-chloro-3,4-dihydro-2H-benzo[b][1,4]oxazin-2-yl)-1,3,4-oxadiazol-2-yl)cyclohexyl)-2-(4-chloro-3-fluorophenoxy)acetamide], the activity at 1 µM was 127%.

For the molecule `O=C(N[C@H]1CC[C@H](c2nnc(Cc3ccc(Cl)cc3)o2)CC1)c1cc2cc(Cl)ccc2o1` [Compound 247, trans-5-chloro-N-(4-(5-(4-chlorobenzyl)-1,3,4-oxadiazol-2-yl)cyclohexyl)benzofuran-2-carboxamide], the activity at 1 µM amounted to 278%.

Take `O=C(COc1ccc(Cl)c(F)c1)N[C@H]1CC[C@H](c2nnc(-c3ccc(Cl)cc3)o2)CC1` [Compound 7, trans-2-(4-chloro-3-fluorophenoxy)-N-(4-(5-(4-chlorophenyl)-1,3,4-oxadiazol-2-yl)cyclohexyl)acetamide]: the activity at 1 µM amounted to 80.9%.

For `O=C(N[C@H]1CC[C@H](c2nnc(Cc3ccc(Cl)cc3)o2)CC1)c1ccc2cc(Cl)ccc2n1` [Compound 239, 6-chloro-N-(trans-4-(5-(4-chlorobenzyl)-1,3,4-oxadiazol-2-yl)cyclohexyl)quinoline-2-carboxamide], the activity at 1 µM was 197%.

For the origin of these results see patent publication US20230083885A1, “MODULATORS OF INTEGRATED STRESS RESPONSE PATHWAY” (Praxis Biotech LLC, priority 2021, published 2023).
